Results from paper PMC4464647, “ANO1 (TMEM16A) in pancreatic ductal adenocarcinoma (PDAC)” (Pflugers Archiv, 2014).

Tests used:
Type in all cases: cell-based, human
HPDE cells = assay: Fura-2 measurement of free intracellular calcium, ATP stimulation; settings: ATP 10 μM, no inhibitor
Experimental: (§1) HPDE and BxPC-3 cells were incubated with 2 μM Fura-2 AM (Sigma-Aldrich, Denmark) for 30 min at 37 °C. Cells were subsequently washed with Krebs solution containing (in mM) 150 NaCl, 6 KCl, 1.5 CaCl2, 1 MgCl2, 10 glucose, and 10 HEPES; pH was adjusted to 7.4 using NaOH. Coverslips were mounted on a recording chamber. In the beginning of the experiment, cells were perfused with Krebs solution at 4 ml/min until baseline was stable. […] Changes in [Ca^2+]i were measured by a TIRF iMIC microscope (TILL Photonics, Germany). Fura-2 AM loaded cells were illuminated at 340 nm for 80 ms and 380 nm for 80 ms at 1 s intervals using a TILL Polychrome monochromator. Five hundred-nanometer emission images were captured by an image-intensifying, charge-coupled device (CCD) camera (TILL Photonics, Germany) and digitized by an image processing system (TILL Photonics, Germany). The monochromator and CCD camera were controlled by LA Live Acquisition software, which was also used for image analysis. The [Ca^2+]i was presented as the Fura-2 ratio of the fluorescence signals obtained at 340/380 nm.
(§2) Fig. 8 Cl^− channel inhibitors alter ATP-induced Ca^2+ signals. Intracellular Ca^2+ measurements in FURA-2 loaded HPDE and BxPC-3 cells. a Representative single-cell traces of individual experiments. Different substances were applied as indicated. […] (n) = number of individual experiments; each containing between 5–45 single cells.***p ≤ 0.001 when compared to no inhibitor condition; ^## p ≤ 0.01 when compared with HPDE no inhibitor
(§3) Activation of CaCC requires an increase in [Ca^2+]i, which can be achieved by stimulation of receptors such as purinergic receptors. Therefore, we studied the effect of Cl^− channel inhibitors on changes in [Ca^2+]i induced by purinergic signaling. We chose HPDE cells with very low expression levels of ANO1 and the highly ANO1 overexpressing cell line BxPC-3 for investigation. Fura-2 loaded HPDE and BxPC-3 cells were stimulated with ATP (10 μM) (Fig. 8) or exposed to the inhibitor prior to stimulation. ATP stimulation caused a 0.46 ± 0.03 peak increase in the Fura-2 ratio in HPDE and 0.55 ± 0.02 in BxPC-3 cells. […] However, no effect of the inhibitor on basal Ca^2+ level was observed.

BxPC-3 cells = assay: as above; settings: BxPC-3, ATP 10 μM, no inhibitor
Experimental: as §1, §2, §3

[1] = test system: HPDE, Capan-1, AsPC-1, and BxPC-3 cells; assay: BrdU incorporation cell proliferation assay, all tested cell lines; settings: all tested cells, gemcitabine 20 μM, data not shown
Experimental: To assess cell proliferation and apoptosis, cells were plated in duplicates on a 96-well plate and incubated in 100 μl of the cell line appropriate media described above. Cells were transfected with siRNA soon after complete attachment (approx. 3 h after seeding). Cells were treated with vehicle, 20 μM gemcitabine, 20 μM T16Ainh-A01, or 10 μM free NS3728 (see below) after culture in a humidified 37 °C and 5 % CO2 incubator overnight. BrdU incorporation was measured using Cell Proliferation ELISA, BrdU (chemiluminescent) (Roche Diagnostics A/S, Denmark) following the manufacturer’s instructions. Caspases 3, 6, and 7 activation was evaluated using Homogeneous Caspases Assay (fluorimetric) (Roche Diagnostics A/S, Denmark).
Fig. 7 VRAC, but not ANO1, regulates cellular proliferation. a Summary of BrdU incorporation in HPDE, Capan-1, AsPC-1, and BxPC-3 cells after various treatments as indicated. Cells were transfected shortly after complete attachment (approx. 3 h) and BrdU incorporation was assessed 36 h after transfection. To investigate effect of inhibitors, cells were incubated for 24 h with respective inhibitor. Values shown are relative to appropriate control. Data shown represents mean ± s.e.m. of n = 4–6 individual experiments. **p ≤ 0.01 and ***p ≤ 0.001 when compared with control

For `Nc1ncnc2c1ncn2[C@@H]1O[C@H](COP(=O)(O)OP(=O)(O)OP(=O)(O)O)[C@@H](O)[C@H]1O` [ATP], the “peak increase in the Fura-2 ratio” value (HPDE cells) was 0.46 ± 0.03 and the “peak increase in the Fura-2 ratio” value (BxPC-3 cells) was 0.55 ± 0.02.

`Nc1ccn([C@@H]2O[C@H](CO)[C@@H](O)C2(F)F)c(=O)n1` [gemcitabine] was tested, and the “proliferation (BrdU incorporation)” value [1] was “almost complete inhibition of proliferation”.
